# Test results taken from patent US20150148383A1, “Methods for Inhibiting or Reversing Epiretinal Membrane Formation” (Regenerative Research Foundation, priority 2013, published 2015).
# Columns and labels:
# Adult human RPE [1] = test: Transepithelial resistance (TER) of RPE on transwells; assay type: cell-based; conditions: measured weekly for one month; presence vs absence of nicotinamide
# Experimental: The transepithelial resistance (TER) is measured during and after treatment of hRPE cells cultured in 12-well 0.4 μm transwell inserts using the EVOM2 World Precision Instruments Volt Ohm Meter protocol. Resistance is measured in Ω-cm^2 and recorded prior to treatment to confirm that all wells are at approximately the same TER. The TER of a cell-free transwell insert of ˜110 Ω-cm^2 is subtracted to obtain the resistance of the cellular epithelium. TER is measured in each well after treatment to assess the change caused by nicotinamide. Adult human RPE were plated on semi-permeable polyester transwells and transepithelial resistance was measured weekly for one month.
# adult human RPE cells = test: Gene expression analysis by real time PCR of RPE and mesenchymal markers; assay type: cell-based; conditions: 10 mM nicotinamide, relative to control
# [2] = tested on: fibroblastic cultures derived from RPE; test: Reversal of epithelial to mesenchymal transition in fibroblastic cultures derived from RPE; assay type: cell-based, human; conditions: 10 mM nicotinamide, media changed 3 times a week; micrograph at 8 weeks
# Experimental: Epithelial to mesenchymal transition (EMT) was determined in fibroblastic cultures as follows: cells were plated 30,000 cells per 1 cm^2 tissue culture plate in DMEM/F12 with 5% FBS with the addition of 10 ng/ml TGFβ and 10 ng/ml TNFα to induce epithelial to mesenchymal transition (EMT). The extent of EMT was determined by the morphologic changes and immunohistochemical stains described above. Epithelial cells were plated at 30,000 cells/cm^2 and cultured until confluent (left image), after which 10 mM nicotinamide was added to the media, which was changed 3 times a week for 8 weeks (FIG. 10). The swirling fibroblastic morphology seen prior to addition of nicotinamide seen at the ‘3 week’ stage indicate the RPE cells have undergone EMT, losing their cobblestone morphology.
# RPE cells [3] = test: Dose response for prevention of epithelial to mesenchymal transition, SNAIL staining read-out; assay type: cell-based, human; conditions: all concentrations: 10 μM, 100 μM, 1 mM or 10 mM nicotinamide; 5 days
# Experimental: Cells were fixed with 4% paraformaldehyde for 15 minutes, permeabilized with 0.2% Triton in PBS, blocked with 1% BSA for 30 minutes. Primary antibodies were used at 1:100 dilution in PBS. The corresponding Alexafluor 647 secondary antibodies were used for the respective primary antibody and imaged on a Zeiss Observer.D1 fluorescent microscope. A dose response curve for the effect of nicotinamide on the prevention of epithelial to mesenchymal transition was determined using SNAIL expression as a read-out. RPE cells were cultured at 30,000 cells/well in a 24 well plate and cultured for 5 days in the presence of media containing 10 μM, 100 μM, 1 mM or 10 mM nicotinamide or control (no nicotinamide). The media was changed 3 times, and replaced with media containing the same concentration of nicotinamide, after which the cells were fixed and stained with fluorescently-labeled anti-SNAIL antibody. At all concentrations, SNAIL staining was decreased by application of nicotinamide.
# RPE cells [4] = test: RPE cell proliferation assay (Ki67 immunostaining, cell number); assay type: cell-based, human; conditions: 10 mM nicotinamide; 5 days in DMEM/F12, 5% FBS
# Description: (§1) Primary adult RPE cells were obtained from cadaveric human eyes under IRB-approved protocols, within 36-hours of the time of death. The anterior half of the eye was removed followed by the vitreous, and retina, isolating the posterior eyecup with the RPE/Bruch's membrane/choroid complex intact (as described in Blenkinsop T A, et al. The culture and maintenance of functional retinal pigment epithelial monolayers from adult human eye. 2012; Salero E et al. Adult human RPE can be activated into a multipotent stem cell that produces mesenchymal derivatives. Cell Stem Cell. 2012; 10(1):88-95). […] Once the primary (passage zero) cells reached confluence (˜20 days), the FBS concentration was reduced to 5%. Then, following the protocol developed by Salero S et al., 2012 (supra), the RPE were activated to proliferate in RPE medium with 5% FBS. The expanded RPE cells were plated at 30,000 cells per well in a 24-well plate and cultured in DMEM/F12, 5% FBS. Proliferation rates were measured by manual and/or automated counting of cell number as a function of time.
# Cells were fixed with 4% paraformaldehyde for 15 minutes, permeabilized with 0.2% Triton in PBS, blocked with 1% BSA for 30 minutes. Primary antibodies were used at 1:100 dilution in PBS. […]
# RPE cells were plated at 30,000 cells per well in a 24 well plate and cultured for 5 days in DMEM/F12, 5% FBS and cell proliferation was measured.
# human RPE cells = test: ZO-1 tight junction protein immunostaining; assay type: cell-based
# Experimental: Cells were fixed with 4% paraformaldehyde for 15 minutes, permeabilized with 0.2% Triton in PBS, blocked with 1% BSA for 30 minutes. Primary antibodies were used at 1:100 dilution in PBS. The corresponding Alexafluor 647 secondary antibodies were used for the respective primary antibody and imaged on a Zeiss Observer.D1 fluorescent microscope.
# Adult human RPE [5] = test: Oxidative stress analysis: TBHP-induced TIMP-3 expression; conditions: 500 μM TBHP 2 hours daily; presence vs absence of nicotinamide; quantitative PCR
# RPE cells [6] = test: RPE morphology in vitro by light microscopy; assay type: cell-based, human; conditions: 10 mM nicotinamide vs no nicotinamide
# Description: as §1
# Cultures were imaged at 32× on a Zeiss Observer.D1 fluorescent microscope.
# Cultured RPE cells were analyzed by light microscopy.
smiles,measurement,setting,value
"NC(=O)c1cccnc1 [nicotinamide, Nicotinamide]",transepithelial resistance,Adult human RPE [1],increased over time
same,MITF mRNA expression (RPE marker),adult human RPE cells,increased
same,RPE65 mRNA expression (RPE marker),adult human RPE cells,increased
same,SLUG mRNA expression (mesenchymal marker),adult human RPE cells,decreased
same,SNAIL mRNA expression (mesenchymal marker),adult human RPE cells,decreased
same,TWIST mRNA expression (mesenchymal marker),adult human RPE cells,decreased
same,cell morphology after EMT (reversal of EMT),[2],revert to their physiologic cobblestone morphology
same,SNAIL staining,RPE cells [3],decreased
same,immunostaining for the cell proliferation marker Ki67,RPE cells [4],decreased immunostaining
same,total cell number,RPE cells [4],decrease in the total cell number
same,pattern of ZO-1 expression,human RPE cells; 10 mM nicotinamide vs control RPE cells,localized expression of tight junction protein ZO-1 peripherally around the cell borders
same,ZO1 staining (junctional marker),human RPE cells; 10 mM nicotinamide vs no nicotinamide,high levels of ZO1 staining
same,TBHP-induced TIMP3 expression relative to day 0,Adult human RPE [5],suppressed
same,RPE cell morphology,RPE cells [6],maintained their characteristic cobblestone morphology
